Results as given in patent US11066443B2 (Hoffmann-La Roche Inc., priority 2017, dated 2021).

system: P. aeruginosa NCTC11454; assay: Antimicrobial susceptibility testing: 50% growth inhibitory concentration (IC50) determination; format: cell-based; settings: Pseudomonas aeruginosa, Iso-Sensitest broth, OD 600 nm every 20 minutes over 16h, growth inhibition during logarithmic growth
Description: The in vitro antimicrobial activity of the compounds was alternatively determined according to the following procedure: The assay used a 10-points Iso-Sensitest broth medium to measure quantitatively the in vitro activity of the compounds against P. aeruginosa NCTC11454. Stock compounds in DMSO were serially twofold diluted (e.g. range from 50 to 0.097 μM final concentration) in 384 wells microtiter plates and inoculated with 49 μl the bacterial suspension in Iso-Sensitest medium to have a final cell concentration of ˜5×10^(5) CFU/ml in a final volume/well of 50 ul/well. Microtiter plates were incubated at 35±2° C. Bacterial cell growth was determined with the measurement of optical density at λ=600 nm each 20 minutes over a time course of 16h. Growth inhibition was calculated during the logarithmic growth of the bacterial cells with determination of the concentration inhibiting 50% (IC50) and 90% (IC90) of the growth. Table 2 provides the 50% growth inhibitory concentrations (IC50) in micromoles per liter of the compounds of present invention obtained against P. aeruginosa NCTC11454.

Compound	IC50 [µM]
Cc1cc(Cl)cc2c1Sc1ccccc1CN[C@@H](CCCN)C(=O)N[C@@H](CCCCN)C(=O)N(C)[C@@H](Cc1c[nH]c3ccccc13)C(=O)NC2 [Example 14, (12S,15S,18S)-15-(4-Amino-butyl)-18-(3-amino-propyl)-6-chloro-12-(1H-indol-3-ylmethyl)-4,13-dimethyl-2-thia-10,13,16,19-tetraaza-tricyclo[19.4.0.0*3,8*]pentacosa-1(25),3,5,7,21,23-hexaene-11,14,17-trione]	24.3
CN1C(=O)[C@H](CCCCN)NC(=O)[C@H](CCCN)NCc2ncccc2Sc2c(Cl)cc(C(F)(F)F)cc2CNC(=O)[C@@H]1Cc1c[nH]c2ccccc12 [Example 24, (11S,14S,17S)-14-(4-Amino-butyl)-11-(3-amino-propyl)-25-chloro-17-(1H-indol-3-ylmethyl)-16-methyl-23-trifluoromethyl-2-thia-7,10,13,16,19-pentaaza-tricyclo[19.4.0.0*3,8*]pentacosa-1(25),3,5,7,21,23-hexaene-12,15,18-trione]	22.4
NCCCC[C@@H]1NC(=O)[C@@H](CCCN)NCc2cccnc2Sc2c(ccc(-c3ccccc3)c2Cl)CNC(=O)[C@H](Cc2c[nH]c3ccccc23)NC1=O [Example 25, (11R,14S,17S)-14-(4-Amino-butyl)-11-(3-amino-propyl)-25-chloro-17-(1H-indol-3-ylmethyl)-24-phenyl-2-thia-4,10,13,16,19-pentaaza-tricyclo[9.4.0.0*3,8*]pentacosa-1(25),3,5,7,21,23-hexaene-12,15,18-trione]	25.3
NCCCC[C@@H]1NC(=O)[C@H](CCCN)NCc2cccnc2Sc2c(ccc(-c3ccccc3)c2Cl)CNC(=O)[C@H](Cc2c[nH]c3ccccc23)NC1=O [Example 26, (11S,14S,17S)-14-(4-Amino-butyl)-11-(3-amino-propyl)-25-chloro-17-(1H-indol-3-ylmethyl)-24-phenyl-2-thia-4,10,13,16,19-pentaaza-tricyclo[9.4.0.0*3,8*]pentacosa-1(25),3,5,7,21,23-hexaene-12,15,18-trione]	23.7
CN1C(=O)[C@H](CCCN)NC(=O)[C@H](CCCN)NCc2ccccc2Sc2c(Cl)cc(Cl)cc2CNC(=O)[C@@H]1Cc1c[nH]c2ccccc12 [Example 30, (12S,15S,18S)-15,18-Bis-(3-amino-propyl)-4,6-dichloro-12-(1H-indol-3-ylmethyl)-13-methyl-2-thia-10,13,16,19-tetraaza-tricyclo[19.4.0.0*3,8*]pentacosa-1(25),3,5,7,21,23-hexaene-11,14,17-trione]	11.1
CN1C(=O)[C@H](CCCCN)NC(=O)[C@H](CCCN)NCc2ccccc2Sc2c(Cl)cc(Br)cc2CNC(=O)[C@@H]1Cc1c[nH]c2ccccc12 [Example 36, (12S,15S,18S)-15-(4-Amino-butyl)-18-(3-amino-propyl)-6-bromo-4-chloro-12-(1H-indol-3-ylmethyl)-13-methyl-2-thia-10,13,16,19-tetraaza-tricyclo[19.4.0.0*3,8*]pentacosa-1(25),3,5,7,21,23-hexaene-11,14,17-trione]	12.5
CN1C(=O)[C@H](CCCCN)NC(=O)[C@H](CCCN)NCc2ccccc2Sc2c(ccc(Br)c2Cl)CNC(=O)[C@@H]1Cc1c[nH]c2ccccc12 [Example 41, (12S,15S,18S)-15-(4-Amino-butyl)-18-(3-amino-propyl)-5-bromo-4-chloro-12-(1H-indol-3-ylmethyl)-13-methyl-2-thia-10,13,16,19-tetraaza-tricyclo[19.4.0.0*3,8*]pentacosa-1(25),3,5,7,21,23-hexaene-11,14,17-trione]	6.5
CN1C(=O)[C@H](CCCCN)NC(=O)[C@H](CCCN)NCc2ccccc2Sc2ncc(Cl)cc2CNC(=O)[C@@H]1Cc1c[nH]c2ccccc12 [Example 43]	22.9

Results, then the compound that gave them:

IC50 [µM]	Compound
10.1	CN1C(=O)[C@H](CCCCN)NC(=O)[C@H](CCCN)NCc2cccnc2Sc2c(cc(-c3ccccc3)cc2C(F)(F)F)CNC(=O)[C@@H]1Cc1c[nH]c2ccccc12 [Example 22, (11S,14S,17S)-14-(4-Amino-butyl)-11-(3-amino-propyl)-17-(1H-indol-3-ylmethyl)-16-methyl-23-phenyl-25-trifluoromethyl-2-thia-4,10,13,16,19-pentaaza-tricyclo[19.4.0.0*3,8*]pentacosa-1(25),3,5,7,21,23-hexaene-12,15,18-trione]
11.3	CN1C(=O)[C@H](CCCCN)NC(=O)[C@@H](CCCN)NCc2cccnc2Sc2c(ccc(-c3ccccc3)c2Cl)CNC(=O)[C@@H]1Cc1c[nH]c2ccccc12 [Example 27, (11R,14S,17S)-14-(4-Amino-butyl)-11-(3-amino-propyl)-25-chloro-17-(1H-indol-3-ylmethyl)-16-methyl-24-phenyl-2-thia-4,10,13,16,19-pentaaza-tricyclo[19.4.0.0*3,8*]pentacosa-1(25),3,5,7,21,23-hexaene-12,15,18-trione]
25.4	CN1C(=O)[C@H](CCCCN)NC(=O)[C@H](CCCN)NCc2cccnc2Sc2c(Cl)ccc(C(F)(F)F)c2CNC(=O)[C@@H]1Cc1c[nH]c2ccc(Cl)cc12 [Example 31, (11S,14S,17S)-14-(4-Amino-butyl)-11-(3-amino-propyl)-25-chloro-17-(5-chloro-1H-indol-3-ylmethyl)-16-methyl-22-trifluoromethyl-2-thia-4,10,13,16,19-pentaaza-tricyclo[19.4.0.0*3,8*]pentacosa-1(25),3,5,7,21,23-hexaene-12,15,18-trione]
7.15	CN1C(=O)[C@H](CCCCN)NC(=O)[C@H](CCCN)NCc2ccccc2Sc2c(Cl)cc(-c3ccccc3)cc2CNC(=O)[C@@H]1Cc1c[nH]c2ccccc12 [Example 32, (12S,15S,18S)-15-(4-Amino-butyl)-18-(3-amino-propyl)-4-chloro-12-(1H-indol-3-ylmethyl)-13-methyl-6-phenyl-2-thia-111,13,16,19-tetraaza-tricyclo[19.4.0.0*3,8*]pentacosa-1(25),3,5,7,21,23-hexaene-11,14,17-trione]
9.02	CN1C(=O)[C@H](CCCCN)NC(=O)[C@H](CCCN)NCc2ccccc2Sc2c(Cl)cc(-c3ccccc3Cl)cc2CNC(=O)[C@@H]1Cc1c[nH]c2ccccc12 [Example 33, (12S,15S,18S)-15-(4-Amino-butyl)-18-(3-amino-propyl)-4-chloro-6-(2-chloro-phenyl)-12-(1H-indol-3-ylmethyl)-13-methyl-2-thia-10,13,16,19-tetraaza-tricyclo[19.4.0.0*3,8*]pentacosa-1(25),3,5,7,21,23-hexaene-11,14,17-trione]
27.8	CN1C(=O)[C@H](CCCCN)NC(=O)[C@H](CCCN)NCc2ccccc2Sc2c(Cl)cc(-c3cccnc3)cc2CNC(=O)[C@@H]1Cc1c[nH]c2ccccc12 [Example 34, (12S,15S,18S)-15-(4-Amino-butyl)-18-(3-amino-propyl)-4-chloro-12-(1H-indol-3-ylmethyl)-13-methyl-6-pyridin-3-yl-2-thia-10,13,16,19-tetraaza-tricyclo[19.4.0.0*3,8*]pentacosa-1(25),3,5,7,21,23-hexaene-11,14,17-trione]
8.1	CN1C(=O)[C@H](CCCCN)NC(=O)[C@H](CCCN)NCc2cccnc2Sc2c(Cl)cc(-c3ccccc3)cc2CNC(=O)[C@@H]1Cc1c[nH]c2ccccc12 [Example 35, 11-(3-amino-propyl)-25-chloro-17-(1H-indol-3-ylmethyl)-16-methyl-23-phenyl-2-thia-4,10,13,16,19-pentaaza-tricyclo[9.4.0.0*3,8*]pentacsa-(25),3(8),4,6,21,23-hexaene-12,15,18-trione]
14.5	CN1C(=O)[C@H](CCCCN)NC(=O)[C@H](CCC(N)=O)NCc2ccccc2Sc2c(cc(-c3ccccc3)cc2C(F)(F)F)CNC(=O)[C@@H]1Cc1c[nH]c2ccccc12 [Example 38, 3-[(11S,14S,17S)-14-(4-Amino-butyl)-17-(1H-indol-3-ylmethyl)-16-methyl-12,15,18-trioxo-23-phenyl-25-trifluoromethyl-2-thia-10,13,16,19-tetraaza-tricyclo[19.4.0.0*3,8*]pentacosa-1(25),3,5,7,21,23-hexaen-11-yl]-propionamide]
23.5	CN1C(=O)[C@H](CCC(N)=O)NC(=O)[C@H](CCCN)NCc2ccccc2Sc2c(cc(-c3ccccc3)cc2C(F)(F)F)CNC(=O)[C@@H]1Cc1c[nH]c2ccccc12 [Example 39, 3-[(11S,14S,17S)-11-(3-Amino-propyl)-17-(1H-indol-3-ylmethyl)-16-methyl-12,15,18-trioxo-23-phenyl-25-trifluoromethyl-2-thia-10,13,16,19-tetraaza-tricyclo[19.4.0.0*3,8*]pentacosa-1(25),3,5,7,21,23-hexaen-14-yl]-propionamide]
25.1	CN1C(=O)[C@H](CCCCN)NC(=O)[C@H](CCCN)NCc2cccnc2Sc2c(Cl)cc(-c3ccnc(Cl)c3)cc2CNC(=O)[C@@H]1Cc1c[nH]c2ccccc12 [Example 40, (11S,14S,17S)-14-(4-Amino-butyl)-11-(3-amino-propyl)-25-chloro-23-(2-chloro-pyridin-4-yl)-17-(1H-indol-3-ylmethyl)-16-methyl-2-thia-4,10,13,16,19-pentaaza-tricyclo[19.4.0.0*3,8*]pentacosa-1(21),3,5,7,22,24-hexaene-12,15,18-trione]
3.47	CN1C(=O)[C@H](CCCCN)NC(=O)[C@H](CCCN)NCc2ccccc2Sc2c(ccc(-c3ccccc3)c2Cl)CNC(=O)[C@@H]1Cc1c[nH]c2ccccc12 [Example 42, (12S,15S,18S)-15-(4-Amino-butyl)-18-(3-amino-propyl)-4-chloro-12-(1H-indol-3-ylmethyl)-13-methyl-5-phenyl-2-thia-10,13,16,19-tetraaza-tricyclo[19.4.0.0*3,8*]pentacosa-1(25),3,5,7,21,23-hexaene-11,14,17-trione]
